# From patent publication US20250382269A1 (CFD Research Corporation, priority 2019, published 2025)
# Several values for one entry are separate records, joined by “and”; a condition that tells them apart may be missing. Identical values can stand only once. Like-named read-outs stand apart in the source and are kept apart here.
# Tests used:
# [1] = system: B. subtilis / cytotoxicity EC50; assay: Selectivity index (SI) using B. subtilis MICs
# Method: Additionally, the antimicrobial compounds were analyzed for cytotoxicity. […] We utilized the standard MTT assay (Promega CellTiter 96) and GraphPad Prism 7 software to determine EC50 values for each analogue. Briefly, 20,000 HepG2 cells in 200 μl of the ATCC recommended media were seeded in each well of a 96-well plate with a moisture barrier created in the outermost wells. The cells were allowed to attach overnight at 37° C., and then observed under phase contrast microscopy for proper morphological characteristics. If cells appeared healthy and attached, test compounds were added in 7 concentrations from […] (n=3) from freshly prepared DMSO stock plates. […] Once incubations were complete, the spectrophotometric absorbance of the samples was measured at a wavelength of 595 nm. […] For the HepaRG assay, NoSpin HepaRG™ cells (Lonza, cat #NSHPRG) were thawed and plated with 20,000 cells per well. They were allowed to attach for 4 h (optimal DME profile per Lonza's testing) before dosing following the identical protocol as above.
# [2] = Toxicity study in mice, body weight over 7 days; assay type: in vivo, Balb/c mice; settings: for toxicity in mice (body weight over 7 days): 6-week-old Balb/c mice, vehicle 40% PEG300 in 0.9% NaCl
# Description: The vehicle is 40% PEG300 solution in 0.9% NaCl. […] Thus, the compounds are useful for in vivo antimicrobial administration.
# Neisseria gonorrhoeae = assay: microbe, parasite or virus in culture; assay type: cell-based
# [3] = IP 0.1 mg/kg, Day 0, individual animals, 0.1 mg/kg
# [4] = IP 0.1 mg/kg, Day 1, individual animals, 0.1 mg/kg
# [5] = IP 0.1 mg/kg, Day 2, individual animals, 0.1 mg/kg
# [6] = IP 0.1 mg/kg, Day 3, individual animals, 0.1 mg/kg
# [7] = IP 0.1 mg/kg, Day 4, individual animals, 0.1 mg/kg
# [8] = IP 0.1 mg/kg, Day 5, individual animals, 0.1 mg/kg
# [9] = IP 0.1 mg/kg, Day 6, individual animals, 0.1 mg/kg
# [10] = IP 0.1 mg/kg, Day 7, individual animals, 0.1 mg/kg
# [11] = IP 1 mg/kg, Day 0, individual animals, 1 mg/kg
# [12] = IP 1 mg/kg, Day 1, individual animals, 1 mg/kg
# [13] = IP 1 mg/kg, Day 3, individual animals, 1 mg/kg
# [14] = IP 1 mg/kg, Day 4, individual animals, 1 mg/kg
# [15] = IP 1 mg/kg, Day 5, individual animals, 1 mg/kg
# [16] = IP 1 mg/kg, Day 6, individual animals, 1 mg/kg
# [17] = IP 1 mg/kg, Day 7, individual animals, 1 mg/kg
# [18] = IP 10 mg/kg, Day 0, individual animals, 10 mg/kg
# [19] = IP 10 mg/kg, Day 1, individual animals, 10 mg/kg
# [20] = IP 10 mg/kg, Day 2, individual animals, 10 mg/kg
# [21] = IP 10 mg/kg, Day 3, individual animals, 10 mg/kg
# [22] = IP 10 mg/kg, Day 6, individual animals, 10 mg/kg
# [23] = IP 10 mg/kg, Day 7, individual animals, 10 mg/kg
# [24] = ATCC49226, read-out: Neisseria gonorrhoeae ATCC 49226 MIC, strain ATCC 49226
structure (smiles),measurement,setting,value
"Fc1ccc(Sc2c[nH]c3ccc(Br)cc23)cc1 [Compound 174P, 5-bromo-3-((4-fluorophenyl)thio)-1H-indole]",SI (selectivity index),[1],24.6
"Nc1ccccc1Sc1c[nH]c2ccc(C(F)(F)F)cc12 [Compound 177C, 2-((5-(trifluoromethyl)-1H-indol-3-yl)thio)aniline]",SI (selectivity index),[1],123.6
"Cc1[nH]c2ccc(Br)cc2c1Sc1ccccc1Br [Compound 174AZ, 5-bromo-3-((2-bromophenyl)thio)-2-methyl-1H-indole]",toxicity in mice (body weight over 7 days),[2],did not have significant toxicity
same,Animal body weight,[2]; [3],0.023 kg (2×) and 0.025 kg
same,Animal body weight,[2]; [4],0.022 kg and 0.024 kg and 0.023 kg
same,Animal body weight,[2]; [5],0.022 kg and 0.025 kg and 0.023 kg
same,Animal body weight,[2]; [6],0.022 kg and 0.025 kg and 0.023 kg
same,Animal body weight,[2]; [7],0.023 kg (2×) and 0.025 kg
same,Animal body weight,[2]; [8],0.022 kg and 0.025 kg and 0.023 kg
same,Animal body weight,[2]; [9],0.022 kg and 0.025 kg and 0.023 kg
same,Animal body weight,[2]; [10],0.022 kg (2×) and 0.025 kg
same,Animal body weight,[2]; [11],0.024 kg (2×) and 0.025 kg
same,Animal body weight,[2]; [12],0.023 kg and 0.024 kg (2×)
same,Animal body weight,"[2]; IP 1 mg/kg, Day 2, individual animals",0.024 kg
same,Animal body weight,[2]; [13],0.025 kg and 0.024 kg (2×)
same,Animal body weight,[2]; [14],0.025 kg (2×) and 0.024 kg
same,Animal body weight,[2]; [15],0.025 kg and 0.023 kg and 0.024 kg
same,Animal body weight,[2]; [16],0.025 kg and 0.024 kg (2×)
same,Animal body weight,[2]; [17],0.025 kg and 0.023 kg and 0.024 kg
same,Animal body weight,[2]; [18],0.023 kg (2×) and 0.024 kg
same,Animal body weight,[2]; [19],0.022 kg (2×) and 0.023 kg
same,Animal body weight,[2]; [20],0.022 kg and 0.023 kg (2×)
same,Animal body weight,[2]; [21],0.022 kg (2×) and 0.023 kg
same,Animal body weight,"[2]; IP 10 mg/kg, Day 4, individual animals",0.023 kg
same,Animal body weight,"[2]; IP 10 mg/kg, Day 5, individual animals",0.023 kg
same,Animal body weight,[2]; [22],0.022 kg (2×) and 0.023 kg
same,Animal body weight,[2]; [23],0.023 kg (2×) and 0.022 kg
Brc1ccc2[nH]cc(Oc3ccccc3)c2c1 [5 bromo-3-phenoxy-1H-indole],MIC,Neisseria gonorrhoeae; [24],8 µg/mL
same,MIC,"Neisseria gonorrhoeae; read-out: Neisseria gonorrhoeae WHO 901 MIC, strain WHO 901",4 µg/mL
same,MIC,"Neisseria gonorrhoeae; read-out: Neisseria gonorrhoeae WHO 914 MIC, strain WHO 914",8 µg/mL
"Clc1ccc2[nH]cc(Sc3ccc(Br)cc3)c2c1 [Compound 174C, 3-((4-bromophenyl)thio)-5-chloro-1H-indole]",SI (selectivity index),[1],16.3
"Oc1ccccc1Sc1c[nH]c2ccc(Br)cc12 [Compound 174AI, 2-((5-bromo-1H-indol-3-yl)thio)phenol]",toxicity in mice (body weight over 7 days),[2],did not have significant toxicity
same,Animal body weight,[2]; [3],0.023 kg (2×) and 0.022 kg
same,Animal body weight,[2]; [4],0.022 kg (2×) and 0.021 kg
same,Animal body weight,[2]; [5],0.023 kg and 0.022 kg and 0.021 kg
same,Animal body weight,[2]; [6],0.024 kg and 0.022 kg (2×)
same,Animal body weight,[2]; [7],0.024 kg and 0.022 kg (2×)
same,Animal body weight,[2]; [8],0.024 kg and 0.022 kg (2×)
same,Animal body weight,[2]; [9],0.024 kg and 0.022 kg (2×)
same,Animal body weight,[2]; [10],0.023 kg (2×) and 0.022 kg
same,Animal body weight,[2]; [11],0.022 kg and 0.024 kg and 0.026 kg
same,Animal body weight,[2]; [12],0.023 kg and 0.024 kg and 0.026 kg
same,Animal body weight,"[2]; IP 1 mg/kg, Day 2, individual animals, 1 mg/kg",0.023 kg and 0.025 kg and 0.026 kg
same,Animal body weight,[2]; [13],0.023 kg and 0.025 kg and 0.027 kg
same,Animal body weight,[2]; [14],0.022 kg and 0.025 kg and 0.026 kg
same,Animal body weight,[2]; [15],0.022 kg and 0.025 kg and 0.026 kg
same,Animal body weight,[2]; [16],0.022 kg and 0.024 kg and 0.026 kg
same,Animal body weight,[2]; [17],0.022 kg and 0.024 kg and 0.026 kg
same,Animal body weight,[2]; [18],0.022 kg and 0.026 kg and 0.024 kg
same,Animal body weight,[2]; [19],0.021 kg and 0.024 kg and 0.022 kg
same,Animal body weight,[2]; [20],0.022 kg and 0.024 kg and 0.023 kg
same,Animal body weight,[2]; [21],0.022 kg and 0.025 kg and 0.023 kg
same,Animal body weight,"[2]; IP 10 mg/kg, Day 4, individual animals, 10 mg/kg",0.022 kg and 0.026 kg and 0.024 kg
same,Animal body weight,"[2]; IP 10 mg/kg, Day 5, individual animals, 10 mg/kg",0.023 kg and 0.026 kg and 0.024 kg
same,Animal body weight,[2]; [22],0.022 kg and 0.026 kg and 0.024 kg
same,Animal body weight,[2]; [23],0.022 kg and 0.026 kg and 0.023 kg
"OCc1[nH]c2ccc(Br)cc2c1Sc1ccccc1Br [Compound 177H, (5-bromo-3-((2-bromophenyl)thio)-1H-indol-2-yl)methanol]",SI (selectivity index),[1],20.4
"Clc1ccc(Sc2c[nH]c3ccc(Br)cc23)c(Cl)c1 [Compound 174V, 5-bromo-3-((2,4-dichlorophenyl)thio)-1H-indole]",SI (selectivity index),[1],19.8
"COc1ccc2[nH]cc(Sc3ccc(Br)cc3)c2c1 [Compound 172E, 3-((4-bromophenyl)thio)-5-methoxy-1H-indole]",SI (selectivity index),[1],14.9
Fc1ccc2[nH]cc(Cc3ccc(Br)cc3)c2c1 [3-(4 bromobenzyl)-5-fluoro-1H-indole],MIC,Neisseria gonorrhoeae; [24],4 µg/mL
"FC(F)(F)c1ccc2[nH]cc(Sc3ccccc3C(F)(F)F)c2c1 [Compound 177F, 5-(trifluoromethyl)-3-((2-(trifluoromethyl)phenyl)thio)-1H-indole]",SI (selectivity index),[1],19.1
